Values after ≈ are worked out from the molar mass of the structure shown.
Experiments:
[1] = system: mouse MLR (C57BL/6 responder cells, mitomycin C treated BALB/C stimulator cells); test: Suppression of in vitro Mixed Lymphocyte Reaction (MLR), 3H-thymidine uptake; assay type: cell-based; details: for IC50: Lymphocyte, mouse MLR, 68 hours, 3H-thymidine
Experimental: The MLR test was performed in microtiter plates, with each well containing 5 ×10^5 C57BL/6 responder cells (H-2^b ), 5 ×10^5 mitomycin C treated (25μg/ml mitomycin C at 37° C. for 30 minutes and washed three times with RPMI 1640 medium) BALB/C stimulator cells (H-2^d) in 0.2 ml RPMI 1640 medium supplemented with 10% fetal calf serum, 2mM sodium hydrogen carbonate, penicillin (50 unit/ml) and streptomycin (50 μg/ml) . The cells were incubated at 37 ° C. in humidified atmosphere of 5% carbon dioxide and 95% of air for 68 hours and pulsed with ^3H-thymidine (0.5 μCi) 4 hours before the cells were collected. The object compound of this invention was dissolved in ethanol and further diluted in RPMI 1640 medium and added to the cultures to give final concentrations of 0.1 μg/ml or less.

ddY mice = test: Acute toxicities in ddY mice by intraperitoneal injection; assay type: in vivo
[2] = Solubility (physical and chemical properties); assay type: physicochemical
[3] = system: Aspergillus fumigatus IFO 5840; test: Antimicrobial activity, serial agar dilution method in Sabouraud agar; assay type: cell-based; details: IFO5840, 30° C., 24 hours
Experimental: (§1) Antimicrobial activities of the tricyclo compounds (I) against various fungi were determined by a serial agar dilution method in a Sabouraud agar. Minimum inhibitory concentrations (MIC) were expressed in terms of μg/ml after incubation at 30° C. for 24 hours.

Fusarium oxysporum = test: as above; assay type: cell-based; details: 30° C., 24 hours
Experimental: as §1

[4] = hexane (n-hexane), petroleum ether
[5] = methanol, ethanol, acetone, ethyl acetate, chloroform, diethyl ether and benzene
[6] = ddY mice, intraperitoneal injection

CCC1/C=C(\C)CC(C)CC(OC)C2OC(O)(C(=O)C(=O)N3CCCCC3C(=O)OC(/C(C)=C/C3CCC(O)C(OC)C3)C(C)C(O)CC1=O)C(C)CC2OC (stereo not shown) [FR-900520, 17-Ethyl-1,14-dihydroxy-12-[2-(4-hydroxy-3-methoxycyclohexyl)-1-methylvinyl)-23,25-dimethoxy-13,19,21,27-tetramethyl-11,28-dioxa-4-azatricyclo-[^22.3.1.0^4,^9) octacos-18-ene-2,3,10,16-tetraone]
Radioactivities (mean C.P.M. ± S.E.) ([1]; 0.25 ng/ml): 14987 ± 1786 C.P.M.
Suppression (%) ([1]; 0.25 ng/ml): 35.1%
Radioactivities (mean C.P.M. ± S.E.) ([1]; 0.500 ng/ml): 9434 ± 1546 C.P.M.
Suppression (%) ([1]; 0.500 ng/ml): 59.2%
Radioactivities (mean C.P.M. ± S.E.) ([1]; 1 ng/ml): 2744 ± 527 C.P.M.
Suppression (%) ([1]; 1 ng/ml): 88.1%
Radioactivities (mean C.P.M. ± S.E.) ([1]; 10 ng/ml): 515 ± 55 C.P.M.
Suppression (%) ([1]; 10 ng/ml): 97.8%
Radioactivities (mean C.P.M. ± S.E.) ([1]; 100 ng/ml): 175 ± 16 C.P.M.
Suppression (%) ([1]; 100 ng/ml): 99.2%
IC50 [1]: 0.00038 µg/mL (≈ 0.00048 µM)
the dead at dose of 100 mg/kg (ddY mice; mouse, in vivo, ip): could not be observed
Solubility [2, 4]: Sparingly Soluble
Solubility [2, 5]: Soluble
Solubility ([2]; water): Insoluble
MIC [3]: 0.1 µg/mL (≈ 0.126 µM)

C=CC[C@@H]1/C=C(\C)C[C@H](C)C[C@H](OC)[C@H]2O[C@@](O)(C(=O)C(=O)N3CCC[C@H]3C(=O)O[C@H](/C(C)=C/[C@@H]3CC[C@@H](O)[C@H](OC)C3)[C@H](C)[C@@H](O)CC1=O)[C@H](C)C[C@@H]2OC [FR-900525]
Radioactivities (mean C.P.M. ± S.E.) ([1]; 1.2 ng/ml): 10103 ± 421 C.P.M.
Suppression (%) ([1]; 1.2 ng/ml): 35.8%
Radioactivities (mean C.P.M. ± S.E.) ([1]; 2.5 ng/ml): 3564 ± 512 C.P.M.
Suppression (%) ([1]; 2.5 ng/ml): 77.4%
Radioactivities (mean C.P.M. ± S.E.) ([1]; 5 ng/ml): 828 ± 369 C.P.M.
Suppression (%) ([1]; 5 ng/ml): 94.7%
Radioactivities (mean C.P.M. ± S.E.) ([1]; 10 ng/ml): 372 ± 32 C.P.M.
Suppression (%) ([1]; 10 ng/ml): 97.6%
Radioactivities (mean C.P.M. ± S.E.) ([1]; 100 ng/ml): 469 ± 56 C.P.M.
Suppression (%) ([1]; 100 ng/ml): 97.0%
IC50 [1]: 0.00155 µg/mL (≈ 0.00196 µM)
the dead at dose of 100 mg/kg (ddY mice; [6]): could not be observed
Solubility [2, 4]: Sparingly Soluble
Solubility [2, 5]: Soluble
Solubility ([2]; water): Insoluble
MIC (Fusarium oxysporum): 1 µg/mL (≈ 1.27 µM)
MIC [3]: 0.5 µg/mL (≈ 0.633 µM)

CO[C@H]1C[C@@H](C)C/C(C)=C/[C@@H](C)C(=O)C[C@H](O)[C@@H](C)[C@@H](/C(C)=C/[C@@H]2CC[C@@H](O)[C@H](OC)C2)OC(=O)[C@@H]2CCCCN2C(=O)C(=O)[C@]2(O)O[C@H]1[C@@H](OC)C[C@H]2C [FR-900523]
Radioactivities (mean C.P.M. ± S.E.) ([1]; 0.25 ng/ml): 17721 ± 1083 C.P.M.
Suppression (%) ([1]; 0.25 ng/ml): 23.3%
Radioactivities (mean C.P.M. ± S.E.) ([1]; 0.500 ng/ml): 11624 ± 395 C.P.M.
Suppression (%) ([1]; 0.500 ng/ml): 49.7%
Radioactivities (mean C.P.M. ± S.E.) ([1]; 1 ng/ml): 5600 ± 399 C.P.M.
Suppression (%) ([1]; 1 ng/ml): 75.8%
Radioactivities (mean C.P.M. ± S.E.) ([1]; 10 ng/ml): 156 ± 37 C.P.M.
Suppression (%) ([1]; 10 ng/ml): 99.3%
Radioactivities (mean C.P.M. ± S.E.) ([1]; 100 ng/ml): 25 ± 12 C.P.M.
Suppression (%) ([1]; 100 ng/ml): 99.9%
IC50 [1]: 0.0005 µg/mL (≈ 0.000643 µM)
the dead at dose of 100 mg/kg (ddY mice; [6]): could not be observed
Solubility [2, 4]: Sparingly Soluble
Solubility [2, 5]: Soluble
Solubility ([2]; water): Insoluble
MIC [3]: 0.3 µg/mL (≈ 0.386 µM)

— US20040029908A1, “Tricyclo compounds, a process for their production and a pharmaceutical composition containing the same” (FUJISAWA PHARMACEUTICAL CO., LTD., priority 1984, published 2004)
